Measured values published in patent US20200397894A1, “COMPOSITIONS AND METHODS FOR TREATING CANCER” (University of Virginia Patent Foundation, priority 2016, published 2020).

Tests used:
[1] = tested on: DM331 and SK-MEL-24 cells from PLX4720-resistant tumors; assay: In vitro sensitivity of cells extracted ex vivo from PLX4720-resistant tumors; assay type: cell-based, human; settings: DM331 and SK-MEL-24 cells extracted ex vivo
Procedure: Proliferation and viability of cultured cells was measured by CELLTITER96® Non-radioactive Cell Proliferation Assay (Promega Corporation; Madison, Wis., United States of America). Briefly, various wild type and mutant BRAF melanoma cells were seeded in 96 well plates and treated with pevonedistat, vemurafenib, or the combination pevonedistat and vemurafenib at various concentrations. Control cells were treated with DMSO. 96 hours following treatment, cells were stained with the dye solution according to the manufacturer's protocol. Absorbance was recorded at 570 nm and growth curves were established. […] Cells were counted every 24 hours using a COUNTESS™ Automated Cell Counter (INVITROGEN™, Carlsbad, Calif., United States of America), and harvested at the indicated times for PI staining and FACS analysis (cell cycle profile) or for immunoblotting.
The effects of pevonedistat, vemurafenib, and/or silencing of various cell cycle-associated proteins by siRNA on cell cycle distribution and rereplication were assessed by propidium iodide staining and flow cytometry of asynchronous melanoma cultures. […]

[2] = tested on: DM93 cells; assay: Cell cycle distribution and rereplication by propidium iodide staining and FACS; assay type: cell-based, human
Procedure: The effects of pevonedistat, vemurafenib, and/or silencing of various cell cycle-associated proteins by siRNA on cell cycle distribution and rereplication were assessed by propidium iodide staining and flow cytometry of asynchronous melanoma cultures. Synchronization of cells was not employed to avoid bias and to be able to measure the impact of these perturbations on proliferating cancer cells. […] Cells were washed with cold PBS, harvested, and fixed in 70% (v/v) ethanol. Cells were subsequently treated with 20 μg of DNase-free RNase and stained with propidium iodide according to instructions of the manufacturer. Samples were analyzed on a FACSCAN™ (Becton, Dickinson and Company, Franklin Lakes, N.J., United States of America) and G0-G1, S, and G2-M fractions were segmented, and apoptotic (sub-G1 DNA content) and rereplicating (>G2/M DNA content) fractions were determined using FLOWJO® (FLOWJO, LLC, Ashland, Oreg., United States of America) and ModFit (Verity Software House, Topsham, Me., United States of America) software.

[3] = tested on: DM331 xenografts; assay: Melanoma flank xenograft in nude mice; assay type: in vivo; settings: vs. vehicle; PLX4720 in rodent diet 417 mg/kg
Procedure: All animal experiments were performed after approval of animal protocols by the Animal Care and Use Committee (ACUC) of the University of Virginia. Animals were housed and handled in accordance with the guidelines of the ACUC of the University of Virginia. The effect of pevonedistat on melanoma growth was tested in flank xenograft models. Foxn1^nu (20-25 g body weight, 4-5 weeks old females) athymic nude immune-deficient mice (Harlan Laboratories, now Envigo, Indianapolis, Ind., United States of America) were used in this study. Pevonedistat was dissolved in sterile 10% DMSO containing PBS (stock 1 mM), filtered, and stored in −20° C. until use. DM93, VMM39, SLM2, DM331, or SK-MEL-24 (2×10^6) melanoma cells were implanted in both flanks of immune-deficient mice (n=12 mice per group) and tumor growth was monitored until they grow to an average volume of 150-200 mm^3, and mice were randomized into groups for treatment. Animals were administered 0.2 mL pevonedistat solution (30 or 60 mg/kg body weight as indicated) intraperitoneally on a schedule of two cycles of five-day treatment followed by five treatment-free days, for 3 weeks, or more as indicated. Control animals were treated with an equal volume of sterile vehicle (10% DMSO in PBS). Where indicated, mice received control rodent diet, or rodent diet with 417 mg/kg PLX4720 (Research Diets, Inc. New Brunswick, N.J., United States of America). Tumors were measured with an electronic caliper every other day for 3 weeks post-drug injection. Animal weight was recorded once a week to detect any weight loss due to the toxicity of drug treatment or tumor burden. At the end of the treatment, animals were euthanized and tumors harvested for further processing. The results shown are mean tumor volumes±s.e.m; *p<0.05, **p<0.01, ***p<0.001.

[4] = tested on: VMM39 cells; assay: Rereplication by propidium iodide staining and FACS; assay type: cell-based, human; settings: retroviral overexpression of SET8 and/or p21 species
Procedure: The effects of pevonedistat, vemurafenib, and/or silencing of various cell cycle-associated proteins by siRNA on cell cycle distribution and rereplication were assessed by propidium iodide staining and flow cytometry of asynchronous melanoma cultures. Synchronization of cells was not employed to avoid bias and to be able to measure the impact of these perturbations on proliferating cancer cells. Briefly, asynchronous melanoma cell lines were treated with pevonedistat or vemurafenib, or transfected with si-CDT1, si-CDT2, si-SET8, si-p21, sigeminin, si-EMI1, or si-GL2 for a time ranging from 24 to 96 hours. Cells were washed with cold PBS, harvested, and fixed in 70% (v/v) ethanol. Cells were subsequently treated with 20 μg of DNase-free RNase and stained with propidium iodide according to instructions of the manufacturer. Samples were analyzed on a FACSCAN™ (Becton, Dickinson and Company, Franklin Lakes, N.J., United States of America) and G0-G1, S, and G2-M fractions were segmented, and apoptotic (sub-G1 DNA content) and rereplicating (>G2/M DNA content) fractions were determined using FLOWJO® (FLOWJO, LLC, Ashland, Oreg., United States of America) and ModFit (Verity Software House, Topsham, Me., United States of America) software.

In the case of `CCCS(=O)(=O)Nc1ccc(F)c(C(=O)c2c[nH]c3ncc(-c4ccc(Cl)cc4)cc23)c1F` [vemurafenib, N-(3-(5-(4-chlorophenyl)-1H-pyrrolo[2,3-b]pyridine-3-carbonyl)-2,4-difluorophenyl)propane-1-sulfonamide], the “sensitivity in vitro of cells from PLX4720-resistant tumors” value [1] is reported as “remained insensitive”, the “cells undergoing pevonedistat-induced rereplication after vemurafenib pretreatment” value ([2]; DM93, pretreatment with vemurafenib for 24 hours, then 1 μM pevonedistat 48 hours) is reported as 16% and the “effect on cell cycle” value ([2]; DM93 cells) is reported as “robust G1 growth arrest and complete depletion of S-phase cells”.

For `CCCS(=O)(=O)Nc1ccc(F)c(C(=O)c2c[nH]c3ncc(Cl)cc23)c1F` [PLX4720], the “growth of DM331 xenografts” value [3] was “inhibited”.

B1: Wild-type CDT1: wild-type CDT1 ectopically expressed from retrovirus (protein, UniProt Q9H211 1-546, looked up)
DNA replication factor Cdt1: MEQRRVTDFFARRRPGPPRIAPPKLACRTPSPARPALRAPASATSGSRKRARPPAAPGRDQARPPARRRLRLSVDEVSSPSTPEAPDIPACPSPGQKIKKSTPAAGQPPHLTSAQDQDTISELASCLQRARELGARVRALKASAQDAGESCTPEAEGRPEEPCGEKAPAYQRFHALAQPGLPGLVLPYKYQVLAEMFRSMDTIVGMLHNRSETPTFAKVQRGVQDMMRRRFEECNVGQIKTVYPASYRFRQERSVPTFKDGTRRSDYQLTIEPLLEQEADGAAPQLTASRLLQRRQIFSQKLVEHVKEHHKAFLASLSPAMVVPEDQLTRWHPRFNVDEVPDIEPAALPQPPATEKLTTAQEVLARARNLISPRMEKALSQLALRSAAPSSPGSPRPALPATPPATPPAASPSALKGVSQDLLERIRAKEAQKQLAQMTRCPEQEQRLQRLERLPELARVLRSVFVSERKPALSMEVACARMVGSCCTIMSPGEMEKHLLLLSELLPDWLSLHRIRTDTYVKLDKAADLAHITARLAHQTRAEEGL
For B1, the “Percent Rereplication” value ([2]; retroviral overexpression of CDT1 species, DM93 per text) was 51.4%.

B2: Wild-type SET8: N-terminal FLAG-tagged Set8 protein encoded by a retrovirus (protein, UniProt Q9NQR1 1-393, looked up)
N-lysine methyltransferase …: MGEGGAAAALVAAAAAAAAAAAAVVAGQRRRRLGRRARCHGPGRAAGGKMSKPCAVEAAAAAVAATAPGPEMVERRGPGRPRTDGENVFTGQSKIYSYMSPNKCSGMRFPLQEENSVTHHEVKCQGKPLAGIYRKREEKRNAGNAVRSAMKSEEQKIKDARKGPLVPFPNQKSEAAEPPKTPPSSCDSTNAAIAKQALKKPIKGKQAPRKKAQGKTQQNRKLTDFYPVRRSSRKSKAELQSEERKRIDELIESGKEEGMKIDLIDGKGRGVIATKQFSRGDFVVEYHGDLIEITDAKKREALYAQDPSTGCYMYYFQYLSKTYCVDATRETNRLGRLINHSKCGNCQTKLHDIDGVPHLILIASRDIAAGEELLYDYGDRSKASIEAHPWLKH
modifications: N-terminal FLAG tag
notes: N-terminal FLAG-tagged Set8 protein encoded by a retrovirus
In the case of B2, the “Percent Rereplication in VMM39” value [4] is reported as 4.98% and the “Percent Rereplication in DM93” value ([2]; retroviral overexpression of SET8 and/or p21 species) is reported as 3.87%.
